Experiments:
[1] = tested on: Mycobacterium austroafricanum JOB5; test: TCE cometabolism and biomass production of pure culture after acetylene exposure; assay type: cell-based; details: for TCE consumption rate: 5% v/v acetylene, 50 μM TCE
From the text: (§1) Aerobic cometabolism of TCE is a viable methodology for TCE removal in large diffuse contaminant plumes. A pure culture of the known aerobic cometabolic TCE degrader, Mycobacterium austroafricanum JOB5 (formerly known as Mycobacterium vaccae JOB5) and a mixed culture enriched from an uncontaminated soil in mineral medium using propane and oxygen as growth substrates were used to test the efficiency of acetylene in reducing biomass growth rate (e.g., a proxy for bioclogging). The mixed culture was created through serial transfers from the original soil microcosms.
(§2) The pure and mixed cultures were then exposed to 50 μM TCE to verify their capacity to aerobically cometabolically degrade TCE. Once their capability to degrade TCE was verified, both cultures were grown in 2 L bottles and fed oxygen and propane until the optical density at 600 nm stabilized at ˜0.2 for multiple days. Then, the two cultures were exposed to acetylene at 5% v/v for varying lengths of time (no exposure (0), 1, 2, 4 and 8 days). The dissolved acetylene concentration in the 2 L bottles was 2.2 mmol/L.
(§3) After the set acetylene exposure time, culture was extracted, and triplicate bottles were started with 50 μM TCE and a pure oxygen headspace. The cultures were then monitored for propane (residual and added) and oxygen consumption, TCE degradation, carbon dioxide production, biomass production, and pH change.

[2] = tested on: soil-derived propane-consuming mixed culture; test: TCE cometabolism and biomass production of mixed culture after acetylene exposure; assay type: cell-based, mixed culture enriched from an uncontaminated soil; details: for TCE consumption rate: 5% v/v acetylene, 50 μM TCE
From the text: as §1, §2, §3

[3] = tested on: Mycobacterium austroafricanum JOB-5 (JOB-5) and a mixed culture, named COMET1; test: Soil columns with contaminated site soil and groundwater, flow through mode, acetylene-containing groundwater; parameters: species or system Mycobacterium austroafricanum JOB-5 and COMET1 mixed culture; details: soil columns, propane fed and acetylene inhibited, two three-hour pulses per day at 0.2 mL/min
Experimental: Groundwater was pumped at a 2-Day HRT (0.2 mL/min) from six pumps programmed to automatically turn on and turn off to deliver groundwater of varying chemistries to the soil columns. For the Propane-Fed (pumps 2-3) and the Propane-Fed and Acetylene-Inhibited treatments (pumps 4-6) which had multiple pumps feeding into one line PVC plastic check valves were installed at line splitting locations to avoid backflow to other feeder bags when pumps automatically started or stopped pumping according to the schedule presented in FIG. 5.
Acetylene or propane from a gas tank was bubbled into groundwater in a closed container in the lab. That groundwater was then pumped from closed container to a sealable Tedlar bag. The Tedlar bag was then connected to the pump which was controlled by a timer to deliver two three-hour pulses of acetylene containing groundwater at 0.2 mL/min per day. The pump effectively serves as a seal for the Tedlar bag as the tubing is pinched at one location to create suction.
For propane, 0.5 L of propane was bubbled through 10 L water for at least four hours. That propane-containing water was then pumped into a Tedlar bag. For the treatments which received propane-containing water, the water was pumped into the columns at 0.2 mL/min to 6 hrs/day (two three-hour pulses). For acetylene, 0.5 L of acetylene was bubbled through 10 L water for at least four hours. That acetylene-containing water was then pumped into a Tedlar bag. For the treatments which received acetylene-containing water, the water was pumped into the columns at 0.2 mL/min to 6 hrs/day (two three-hour pulses) […]
Phase I involves bioaugmentation in soil columns in batch mode. […] Batches were continued until either propane was not detected in the groundwater or propane consumption slowed. […]
Phase II involves flow through mode. […] These gas syringes were then analyzed for TCE, propane, and acetylene via gas chromatography with flame ionization detection (GC-FID) and for oxygen and carbon dioxide via assessment of a thermal conductivity detector (TCD). […]

[4] = as acetylene exposure times increased (1-8 days), 5% v/v

With `C#C` [acetylene] the “rate of TCE degradation” value [1, 4] was “decreased”, the “rate of biomass production (optical density)” value [1, 4] was “decreased” and the TCE consumption rate ([1]; day 1 of acetylene exposure) was 0.42 μmol TCE/(L day). The TCE consumption rate ([1]; day 2 of acetylene exposure) was 0.63 μmol TCE/(L day), the TCE consumption rate ([1]; day 4 of acetylene exposure) was 0.36 μmol TCE/(L day) and the TCE consumption rate ([1]; day 8 of acetylene exposure) was 0.07 μmol TCE/(L day). For the same molecule, the “rate of TCE degradation” value [2, 4] was “decreased”, the “rate of biomass production (optical density)” value [2, 4] was “decreased” and the TCE consumption rate ([2]; day 1 of acetylene exposure) was 0.45 μmol TCE/(L day). The TCE consumption rate ([2]; day 2 of acetylene exposure) was 0.54 μmol TCE/(L day), the TCE consumption rate ([2]; day 4 of acetylene exposure) was 0.52 μmol TCE/(L day) and the TCE consumption rate ([2]; day 8 of acetylene exposure) was 0.25 μmol TCE/(L day). The “TCE degradation (cumulative TCE removal)” value [3] was “slowed”, the “biomass production (total organic carbon as proxy)” value [3] was “slowed” and the “propane consumption (cumulative)” value [3] was “slowed”.

From US20250178051A1, “METHODS OF CONTROLLING MICROBIOLOGICAL PROCESSES FOR IN SITU CONTAMINANT TREATMENT” (priority 2022, published 2025)
